Source: patent US5658906A, “Cysteine protease and serine protease inhibitors” (Cephalon, Inc., priority 1996, dated 1997)

Legend:
Calpain I = molecular target: T1, Calpain I (Homo sapiens, UniProt P07384); experiment: Inhibition and rate of inactivation of calpain I (Succ-Leu-Tyr-MNA hydrolysis); type: biochemical; details: mean of three or more independent analyses, corrected for substrate, k2 = kapp(1+[S]/Km), read-out: k2 (second order rate constant of inactivation), A = Calpain I
T1 construct: Calpain I was purified from human red blood cells; from tissue; host or cells: human red blood cells (packed, outdated)
T1 sequence (P07384 1-714): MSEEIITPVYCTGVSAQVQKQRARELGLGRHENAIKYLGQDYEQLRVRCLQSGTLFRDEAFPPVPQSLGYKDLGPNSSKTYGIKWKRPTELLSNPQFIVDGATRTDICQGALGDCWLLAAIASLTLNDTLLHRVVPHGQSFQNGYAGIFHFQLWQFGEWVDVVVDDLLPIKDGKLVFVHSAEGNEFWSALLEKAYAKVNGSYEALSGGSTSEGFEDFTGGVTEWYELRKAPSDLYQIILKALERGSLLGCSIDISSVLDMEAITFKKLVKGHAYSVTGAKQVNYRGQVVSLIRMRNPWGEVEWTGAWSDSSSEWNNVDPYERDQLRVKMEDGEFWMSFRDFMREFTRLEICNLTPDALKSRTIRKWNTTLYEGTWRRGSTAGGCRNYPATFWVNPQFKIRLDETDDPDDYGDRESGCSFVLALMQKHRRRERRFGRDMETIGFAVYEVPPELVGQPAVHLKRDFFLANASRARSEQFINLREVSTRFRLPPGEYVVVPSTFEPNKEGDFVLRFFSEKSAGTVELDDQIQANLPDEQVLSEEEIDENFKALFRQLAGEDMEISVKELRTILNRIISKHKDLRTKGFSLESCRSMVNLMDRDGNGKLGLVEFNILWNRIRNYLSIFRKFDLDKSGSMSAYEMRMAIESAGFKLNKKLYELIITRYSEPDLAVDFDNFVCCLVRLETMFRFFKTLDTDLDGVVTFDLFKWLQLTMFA
T1 sequence (P04632 1-268 partner): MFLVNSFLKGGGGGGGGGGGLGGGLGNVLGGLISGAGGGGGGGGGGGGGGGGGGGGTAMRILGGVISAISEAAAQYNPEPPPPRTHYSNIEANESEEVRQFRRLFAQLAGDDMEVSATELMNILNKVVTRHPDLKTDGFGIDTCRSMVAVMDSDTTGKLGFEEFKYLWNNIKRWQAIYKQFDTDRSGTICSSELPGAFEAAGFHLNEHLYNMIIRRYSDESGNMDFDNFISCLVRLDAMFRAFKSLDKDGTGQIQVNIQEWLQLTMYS
Experimental: To evaluate inhibitory activity of our compounds, stocks (40 times concentrated) of each compound to be tested were prepared in 100% anhydrous dimethyl sulfoxide (DMSO) and 5 μl of each inhibitor preparation was aliquoted into each of three wells of a 96 well plate. Calpain I was purified from human red blood cells using a modification of the method described by Lee, W. J. et al. (Biochem. Internatl. (1990)22(1): 163-171). Briefly, 3 units of packed outdated red blood cells were washed 3× by repeated centrifugation at 500 rpm for 10 minutes through 900 mls of 0.9% NaCl. Cells were lysed in 20 mM Tris/1 mM EDTA/1 mM EGTA/5 mM mercaptoethanol (Buffer A) and centrifuged for 1 hour at 12,000 rpm in a GSA rotor using a Sorval centrifuge. The supernatant was collected and applied to a DEAE-sepharose FF column equilibrated in Buffer A+25 mM NaCl. After washing the column in Buffer A+25 mM NaCl, the bound protein was eluted at 117 ml/hr with a 25 mM to 150 mM NaCl linear gradient in Buffer A collecting 200, 10 mL fractions. Two μl of every fifth fraction was applied to nitrocelluose using a dot blot apparatus and calpain containing fractions identified by Western analysis. For detection of calpain, nitrocellulose sheets were first blocked in 5% Blotto (5% Carnation instant milk/10 mM Tris/[…]150 mM NaCl) for 30 minutes, followed by incubation for 1 hour in antibody directed against Calpain I (rabbit anti-human calpain I polyclonal sera, 1:1000 dilution in 5% Blotto). After three 5 minutes washes in 10 mM Tris/150 mM NaCl/0.05% Tween 20 the nitrocellulose was incubated for 1 hour in secondary alkaline phosphatase conjugated antibody (Biorad Cat#170-6518 1:2000 in 5% Blotto). After three 5 minutes washes in 10 mM Tris/150 mM NaCl/0.05% Tween 20 and 1 wash in 10 mM Tris/150 mM NaCl the nitrocellulose was incubated for up to 2 hours in a colorimetric substrate solution (Biorad Alkaline Phosphatase Substrate conjugate kit, cat#170-6432). The reaction was stopped by washing in water. After fractions containing calpain, and those in between, were pooled, solid ammonium sulfate was added to achieve a 30% solution and the mixture stirred for 1 hour at 4° C. Following collection of the precipitate by centrifugation for 1 hour at 4° C. at 12K rpm in a GSA rotor, the supernatant was collected and brought to 45% in ammonium sulfate. After stirring for 1 hour at 4° C., centrifugation was repeated. The supernatant was discarded and the precipitate resuspended in approximately 7 mls and dialyzed overnight at 4° C. against Buffer A+50 mM NaCl. The sample was then applied to a S300 gel filtration column preequilibrated in Buffer A+50 mM NaCl, washed and eluted at a flow rate of 20 ml/hr, collecting 200, 4 ml fractions. The peak of calpain was determined by assaying aliquots of every fifth fraction for enzyme activity monitored by the hydrolysis of a fluorogenic dipeptide substrate as described below. The peak fractions were pooled and the enzyme preparation used to test compounds for inhibitory activity. As an alternate to enzyme isolated from tissue sources, recombinant human calpain I has also been used to monitor compounds for inhibitory activity.
The foregoing enzyme preparation was diluted into assay buffer (i.e., 50 mM Tris, 50 mM NaCl, 1 mM EDTA, 1 mM EGTA, and 5 mM β-mercaptoethanol, pH 7.5 including 0.2 mM Succ-Leu-Tyr-MNA) and 175 μl aliquoted into the same wells containing the independent inhibitor stocks as well as to positive control wells containing 5 μl DMSO, but no compound. To start the reaction, 20 μl of 50 mM CaCl2 in assay buffer was added to all wells of the plate, excepting three, which were used as background signal baseline controls. Substrate hydrolysis was monitored every 5 minutes for a total of 30 minutes using Flouroskan II (ex=340 nm; em=430 nm). Substrate hydrolysis in the absence of inhibitor was linear for up to 15 minutes. […]

Cathepsin B = molecular target: T2, Cathepsin B (Homo sapiens, UniProt P07858); experiment: Inhibition and rate of inactivation of cathepsin B (Cbz-Phe-Arg-AMC hydrolysis); type: biochemical; details: pH 6.0, 0.1 mM substrate, read-out: k2 (second order rate constant of inactivation), C = Cathepsin B
T2 construct: purchased Calbiochem 219364
Experimental: Additionally, the order of reagents added to the plate was altered because both enzymes are constitutively active. Following inhibitor addition to the plates appropriate 2× concentrated stock dilutions of the enzyme preparations were made in assay buffer and 100 ul added to each well. The assay was initiated by addition of 100 ul of 2× concentrated stock dilution of substrate in assay buffer. Substrate hydrolysis was monitored using a Fluroskan II (ex=390 nm; em=460 nm).
Inhibition of enzyme activity was calculated as the percent decrease in the rate of substrate hydrolysis in the presence of inhibitor (.upsilon.i) relative to the rate in its absence (.upsilon.o). Comparison between .upsilon.o and .upsilon.i was made within the linear range for substrate hydrolysis. For screening, compounds were tested at 10 μM. Compounds having ≥50% inhibition at 10 μM were considered active. Apparent second order rate constants were determined from analysis of reaction progress curves under pseudo-first order conditions. Each determination represents the mean of three or more independent single cuvette analyses continually monitored via a Perkin-Elmer LS50B spectrofluorimeter. The rate of inhibition of hydrolysis was obtained by fitting the curve to the exponential equation (1):
y=Ae^-k.spsb.obs·t +B (1)
where y (Pt) is the product formed at time t. A and B are constants. A, the amplitude of the reaction, is given by [Po -P.varies. ] and B (=P.varies.) is the maximal product formed when the reaction is […]. This was corrected for the presence of equation (2): […]

[1] = tested on: calpain I in Molt-4 cells (α-spectrin breakdown products); experiment: Inhibition of calpain activation in intact Molt-4 cells (calpain-generated spectrin breakdown products); type: cell-based; details: Homo sapiens, calcium and ionophore (ionomycin), read-out: % Inhibition of BDPs (10 μM)
α-chymotrypsin = molecular target: T3, α-chymotrypsin (Bos taurus, UniProt P00766); experiment: Inhibition of the serine protease α-chymotrypsin (Succ-Ala-Ala-Pro-Phe-AMC hydrolysis); type: biochemical; details: pH 7.5, 0.03 mM substrate
T3 construct: purchased Sigma Chem. Co. C-3142
Experimental: Additionally,because α-chymotrypsin is not a calcium sensitive enzyme and is constituitively active, following addition of inhibitor stocks to the 96 well plates, 100 ul of a 2 fold concentrated stock of enzyme in dilution buffer was first added and the reaction started by addition of 100 ul of a 2 fold concentrated stock of substrate in assay buffer. Substrate hydrolysis was monitored every 5 minutes up to 30 minutes using a Fluoroskan II ([…]).

Structure (SMILES) | kinact/KI (Calpain I) [M⁻¹ s⁻¹] | kinact/KI (Cathepsin B) [M⁻¹ s⁻¹] | inhibition at 10 µM [1] [%] | inhibition at 10 µM (α-chymotrypsin) [%]
CC(C)C[C@H](NC(=O)[C@H](CC(C)C)NC(=O)OCc1ccccc1)C(=O)COn1nnc2ccccc21 [Example 4, 1-[N-[N-Benzyloxycarbonyl-L-leucyl]-3S-5-methyl-3-amino-2-oxohexyloxy]benzotriazole] | 175000 | 19000 | 57 | –
CC(C)C[C@H](NC(=O)OCc1ccccc1)C(=O)N[C@@H](Cc1ccccc1)C(=O)COn1nnc2ccc(C(F)(F)F)cc21 [Example 7, 1-[N-[N-Benzyloxycarbonyl-L-leucyl]-3S-4-phenyl-3-amino-2-oxobutyloxy]-6'-trifluoromethylbenzotriazole] | 160000 | 18000 | – | 99
CC(C)C[C@H](NC(=O)OCc1ccccc1)C(=O)N[C@@H](Cc1ccccc1)C(=O)COn1nnc2ccc(Cl)cc21 [Example 8, 1-[N-[N-Benzyloxycarbonyl-L-leucyl]-3S-4-phenyl-3-amino-2-oxybutyloxy]-6'-chlorobenzotriazole] | 101000 | – | 57 | –
COc1ccc2nnn(OCC(=O)[C@H](Cc3ccccc3)NC(=O)[C@H](CC(C)C)NC(=O)OCc3ccccc3)c2c1 [Example 9, 1-[N-[N-Benzyloxycarbonyl-L-leucyl]-3S-4-phenyl-3-amino-2-oxobutyloxy]-6'-methoxybenzotriazole] | 125000 | 52000 | – | 83
CC(C)C[C@H](NC(=O)OCc1ccccc1)C(=O)N[C@@H](Cc1ccccc1)C(=O)COn1nnc2ccc(F)cc21 [Example 10, 1-[N-[N-Benzyloxycarbonyl-L-leucyl]-3S-4-phenyl-3-amino-2-oxobutyloxy]-6'-fluorobenzotriazole] | 50000 | – | – | 89
Cc1cc2nnn(OCC(=O)[C@H](Cc3ccccc3)NC(=O)[C@H](CC(C)C)NC(=O)OCc3ccccc3)c2cc1Cl [Example 11, 1-[N-[N-Benzyloxycarbonyl-L-leucyl]-3S-4-phenyl-3-amino-2-oxobutyloxy]-6'-chloro-5'-methylbenzotriazole] | 98000 | 28000 | – | 100
Cc1cccc2c1nnn2OCC(=O)[C@H](Cc1ccccc1)NC(=O)[C@H](CC(C)C)NC(=O)OCc1ccccc1 [Example 12, 1-[N-[N-Benzyloxycarbonyl-L-leucyl]-3S-4-phenyl-3-amino-2-oxobutyloxy]-4'-methylbenzotriazole] | 46000 | – | – | 94
CC(C)C[C@H](NC(=O)OCc1ccccc1)C(=O)N[C@@H](Cc1ccccc1)C(=O)COn1nnc2c(F)c(F)c(F)c(F)c21 [Example 16, 1-[N-[N-Benzyloxycarbonyl-L-leucyl]-3S-4-phenyl-3-amino-2-oxybutyloxy]-4',5',6',7'-tetrafluorobenzotriazole] | 93000 | – | 64 | –
CC(C)C[C@H](NC(=O)OCc1ccccc1)C(=O)N[C@@H](Cc1ccccc1)C(=O)COn1nnc2ncccc21 [Example 19, 1-[N-[N-Benzyloxycarbonyl-L-leucyl]-3S-4-phenyl-3-amino-2-oxybutyloxy]-(1H)-triazolo[4,5-b]pyridine] | 57000 | – | 54 | –
CC(C)C[C@H](NC(=O)OCc1ccccc1)C(=O)N[C@@H](Cc1ccccc1)C(=O)COn1nnc2c(F)c(F)ccc21 [Example 25, 1-[N-[N-Benzyloxycarbonyl-L-leucyl]-3S-4-phenyl-3-amino-2-oxybutyloxy]-4',5'-difluorobenzotriazole] | 67000 | 300000 | 52 | –
CC(C)CC(CC(=O)C1c2ccccc2Oc2ccccc21)C(=O)N[C@@H](Cc1ccccc1)C(=O)COn1nnc2ccccc21 (stereo partly drawn) [Example 39, 1-[N-[2-(2-Methylpropyl)-1,4-dioxo-4-(xanthen-9-yl)butyl]-3S-3-amino-2-oxo-4-phenylbutyloxy]benzotriazole] | 46000 | 55000 | – | 100
CC(C)CC(CC(=O)C1c2ccccc2Oc2ccccc21)C(=O)N[C@@H](CC(C)C)C(=O)COn1nnc2ccccc21 (stereo partly shown) [Example 40] | 2700 | 48000 | – | 100
